# Results reported in ChEMBL document CHEMBL1133580, “Successful virtual screening of a chemical database for farnesyltransferase inhibitor leads” (J Med Chem, 2000).
# Activity calls are given as the source filed them. The calls are words filed in the database; no cut-off is given here.
# Molecular target: T1, Protein farnesyltransferase (Rattus norvegicus) (UniProt Q04631+Q02293)
# Assay: In vitro inhibition of farnesyl transferase (FT) by using FT [3H]-SPA kit at the dose of 100 uM
# Type: protein-complex assay
row,SMILES,inhibition
1,O=C(Nc1ccc(F)cc1[N+](=O)[O-])Oc1ccc2cc(Br)ccc2c1,26.4%
2,Cc1ccc(S(=O)(=O)N(C)c2ccc(Cl)cc2C2=NCC(C)(C)c3ccccc32)cc1,16.8%
3,O=C(OCC(F)(F)C(F)(F)C(F)(F)C(F)(F)F)c1cc([N+](=O)[O-])cc2c1-c1c(cc([N+](=O)[O-])cc1[N+](=O)[O-])C2=O,41.1%
4,Cc1ccc(S(=O)(=O)C(Cl)(Cl)S(=O)(=O)c2ccc(C)cc2)cc1,41.6%
5,O=[N+]([O-])c1ccc(C2CC(c3cccnc3)=NN2c2ccccc2)cc1 (stereo not drawn),43.9%

# More lines, now with the values ahead:
row,inhibition,SMILES
1,24.5%,CC(=O)c1cc(C(=O)c2ccc(F)cc2)n2cnc3cc(F)ccc3c12
2,23.8%,O=C(Cc1cccc2ccccc12)NC(NC(=S)N1CCOCC1)C(Cl)(Cl)Cl (stereo not drawn)
3,30%,COc1ccc(C=C(C(=O)c2ccccc2)C(=O)c2ccccc2)cc1
4,27.8%,COc1cc(C(c2c(O)oc3ccccc3c2=O)c2c(O)oc3ccccc3c2=O)cc(OC)c1OC
5,19.7%,O=C(Oc1cc(S(=O)(=O)c2ccccc2)ccc1[N+](=O)[O-])c1cccnc1Cl
6,32.2%,CCCCCCn1c(N)c(C#N)c2ccc([N+](=O)[O-])cc2c1=O
7,39.2%,O=C1NC(=S)S/C1=C\c1ccccc1I

# Molecular target: T1, Protein farnesyltransferase (Rattus norvegicus)
# Assay: In vitro inhibition of farnesyl transferase (FT) by using FT [3H]-SPA kit at the dose of 500 uM
# Type: protein-complex assay
row,SMILES,inhibition
1,CN(C)c1ccc(C(=O)N/N=C/c2ccccc2[N+](=O)[O-])cc1,28.3%
2,COc1cccc(C2Nc3ccccc3CN2NS(=O)(=O)c2ccc(C)cc2)c1O (stereo not drawn),16.8%
3,CCN(CC#N)c1ccc(/C=N/c2ccc(SC)cc2)cc1,15.8%
4,CCN(CC)c1cccc(OC(=O)Nc2cccc(C(F)(F)F)c2)c1,21.2%
5,CC(=O)OCC(COC(C)=O)(CN1C(=O)c2ccccc2C1=O)CN1C(=O)c2ccccc2C1=O,60.2%
6,O=[N+]([O-])c1cc(C(F)(F)F)cc([N+](=O)[O-])c1Oc1ccc(S(=O)(=O)N2CCOCC2)cc1,50.8%
7,Cc1ccc(S(=O)(=O)NC2(Nc3cccc(C)c3)C(Cl)=C(Cl)C(=O)C(Cl)(Cl)C2(Cl)Cl)cc1 (stereo not drawn),24.9%

# Further lines, results first:
row,inhibition,SMILES
1,27.3%,NC(=O)c1cc2c(c([N+](=O)[O-])c1)-c1c(cc(C(N)=O)cc1[N+](=O)[O-])C2=O
2,17%,Cc1c(/N=C/N(C(=O)c2ccccc2)c2cccc([N+](=O)[O-])c2C)cccc1[N+](=O)[O-]
3,23.9%,Nc1c(C(=O)Nc2ccccc2)sc2nc3c(c(-c4cccnc4)c12)CCC3

# Molecular target: T1, Protein farnesyltransferase (Rattus norvegicus)
# Assay: In vitro inhibition of farnesyl transferase (FT) by using FT [3H]-SPA kit; IA is inactive
# Type: protein-complex assay
row,SMILES,inhibition
1,O=[N+]([O-])c1ccc(-c2csc(-c3ccc(Cl)cc3)n2)cc1CS(=O)(=O)c1ccc(Cl)cc1,inactive
2,Cc1cc(-c2nc(-c3ccc(C(F)(F)F)cc3)no2)n(C)n1,inactive
3,Clc1ccc(-c2cc(-c3csc(N/N=C/c4ccccc4)n3)on2)c(Cl)c1,inactive
4,CSc1nc(N/C=C(\C#N)S(=O)(=O)c2ccccc2Cl)nc(N(C)C)n1,inactive
5,Cc1c(-c2ccnc(SCc3ccccc3)n2)sc2ccc(Cl)cc12,inactive

# Results, then the compound that gave them:
row,inhibition,SMILES
1,inactive,CC(C)C(NC(=O)OCc1ccccc1)C(=O)NC(C)(C)C (stereo not drawn)
2,inactive,O=C1c2cccc([N+](=O)[O-])c2C(=O)N1c1ccc(S(=O)(=O)c2ccc(N3C(=O)c4cccc([N+](=O)[O-])c4C3=O)cc2)cc1
3,inactive,COc1ccc(CCN2C(=O)CS/C2=N\c2c(C)cccc2C)cc1OC
4,inactive,O=C(NC(=O)C(c1ccc(Cl)cc1)c1ncc(C(F)(F)F)cc1Cl)Nc1ccc(Cl)cc1 (stereo not drawn)
5,inactive,O=C(N/N=C/c1ccccc1O)N(c1ccccc1)c1ccccc1
6,inactive,Cc1cc(C)c(S(=O)(=O)Cc2ccccc2)c(OC(C)C)n1
7,inactive,COc1ccccc1/N=C(\S)NC1CCCCCCCCCCC1
8,inactive,COc1cccc(NS(=O)(=O)c2ccc(-c3ccc(S(=O)(=O)Nc4cccc(OC)c4)s3)s2)c1
9,inactive,O=C(Cc1c(Cl)cc(Cl)cc1Cl)C(=O)Oc1c(Cl)cc(Cl)cc1Cl
10,inactive,N=C(NOC(=O)Nc1ccc(Cl)cc1)c1ccc(OCc2ncc(C(F)(F)F)cc2Cl)cc1

# Molecular target: Protein farnesyltransferase (Rattus norvegicus, UniProt Q02293+Q04631)
# Assay: In vitro inhibition of Farnesyltransferase (FT) by using FT [3H]-SPA kit.
# Type: protein-complex assay
row,SMILES,IC50
1,O=C1c2cc([N+](=O)[O-])cc(C(=O)N3CCCCC3)c2-c2c1cc([N+](=O)[O-])cc2[N+](=O)[O-],96 µM
